According to the NIST ThermoML archive (doi:10.1007/s10765-007-0223-x):

Tests used:
[1] = xn = mol fraction of the nth substance listed; conditions: 101 kPa, Liquid, x2 = 0; for speed of sound: Single path-length method
[2] = 101 kPa, Liquid; for speed of sound: Single path-length method

Cc1ccccc1 [toluene] + COC(C)(C)C
[1]
Conditions	mass density [kg/m3]	speed of sound [m/s]
288.15 K	871.457	1347.5
290.65 K	869.144	1336.3
293.15 K	866.823	1325.3
295.65 K	864.5	1314.3
298.15 K	862.173	1303.4
300.65 K	859.845	1292.6
303.15 K	857.513	1281.9
305.65 K	855.175	1271.2
308.15 K	852.838	1260.5
310.65 K	850.494	1249.8
313.15 K	848.146	1239.2
315.65 K	845.794	1228.6
318.15 K	843.437	1218
320.65 K	841.075	1207.3
323.15 K	838.706	1196.6

c1ccccc1 [benzene] + COC(C)(C)C
[1]
Conditions	mass density [kg/m3]	speed of sound [m/s]
288.15 K	884.183	1345.5
290.65 K	881.521	1333.4
293.15 K	878.856	1321.6
295.65 K	876.19	1309.9
298.15 K	873.52	1298.3
300.65 K	870.847	1286.7
303.15 K	868.172	1275.1
305.65 K	865.49	1263.6
308.15 K	862.805	1252.1
310.65 K	860.118	1240.7
313.15 K	857.425	1229.3
315.65 K	854.73	1217.9
318.15 K	852.032	1206.7
320.65 K	849.331	1195.5
323.15 K	846.641	1184.6

CCc1ccccc1 [ethylbenzene]
[2]
Conditions	mass density [kg/m3]	speed of sound [m/s]
288.15 K	871.245	1360.7
290.65 K	869.052	1349.9
293.15 K	866.856	1339.4
295.65 K	864.66	1328.9
298.15 K	862.459	1318.4
300.65 K	860.256	1307.9
303.15 K	858.047	1297.5
305.65 K	855.837	1287.1
308.15 K	853.622	1276.8
310.65 K	851.407	1266.5
313.15 K	849.186	1256.3
315.65 K	846.964	1246.1
318.15 K	844.741	1236.1
320.65 K	842.518	1226.1
323.15 K	840.306	1216.3
